Data: paper PMC10786919, “Design-rules for stapled peptides with in vivo activity and their application to Mdm2/X antagonists” (Nature Communications, 2024)
In brackets after ≈: the same amount, converted by molar mass. Read-outs that look alike come from different tables or passages of the source. Positions of bridges follow the written chain, without caps; N, C: chain ends. Non-standard residues stand in square brackets, D forms with d. Residues, ends and D or L forms follow the SMILES beside them. Lys(N3) = [N-]=[N+]=NCCCC[C@H](N)C(=O)O; R8 = C=CCCCCCC[C@@](C)(N)C(=O)O; Cba = N[C@@H](CC1CCC1)C(=O)O; S5 = C=CCCC[C@](C)(N)C(=O)O; βAla = NCCC(=O)O

Columns and labels:
[1] = Solubility assay (kinetic solubility, PBS pH 7); assay type: physicochemical; settings: pH 7, PBS; for solubility kinetic: pH 7, aqueous buffer, kinetic from dmso stock, read-out: Solubility
Procedure: The standard reference solutions were prepared by diluting the 10 mM stock in 10:80:10 solution of acetonitrile:methanol:DMSO to 100 µM.
The solubility value is calculated by the following equation:
Solubility [µM] = (Peak area of sample/ Peak area of standard) (Standard concentration)

[2] = in vitro
From the text: Further, there have been several literature reports[18]–[20] that highlight that the combination of hydrophobic character and positive charge can result in mast cell degranulation (MCD), a potentially fatal condition[18]–[20]. […] The NanoClick assay[22] determines permeability of azide-labeled peptides by combining intracellular copper-free click chemistry with NanoBRET technology. Specifically, if an azido-peptide achieves cytosolic exposure, it will react with a cyclooctyne-decorated Halotag construct that is fused with nanoluciferase. This reaction blocks the click labelling of a subsequently added azido-labeled acceptor dye, thus decreasing the NanoBRET signal in a manner that is target-binding agnostic.
This assay was previously described in detail. The assay was performed in 384-well white assay plates (PerkinElmer CUSG03874) using assay-ready frozen cells that had been transiently transfected with the NanoLuc-HaloTag vector that were thawed at plated in complete media at a density of 6000 cells/ well and incubated at 37 °C 5% CO2 overnight. DIBAC-CA was diluted in assay buffer (OptiMem without phenol red + 1% FBS) and added to cells at a final concentration of 3 μM and incubated at 37 °C 5% CO2 for 1 h. Cells were subsequently centrifuged using a BlueWasher instrument (Blue Cat Bio) to remove the DIBAC-CA solution and washed two times with HBSS (Ca2 + , Mg2 + ). A volume of 30 μL of assay buffer was added back to cell plates. Peptides were serially diluted 4-fold in DMSO with a Hamilton Star apparatus and then delivered into assay plates with an acoustic liquid handler Labcyte ECHO (300 nl, 1% DMSO in-well concentration). After incubating cells with peptide for the desired time (4 or 18 h), the HaloTag ligand, NanoBret618-azide, was added to each well at a final concentration of 10 μM. […] Following addition of NanoBRET Nano-Glo Substrate, donor emission (450 nm) and acceptor emission (610 nm) were measured using an Envision instrument (PerkinElmer).

[3] = Lactate dehydrogenase (LDH) release assay; assay type: cell-based
Method in brief: (§1)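 A p53 β-lactamase reporter HCT116 line, 8000 cells per well, is exposed to test compounds at 0.5% final DMSO and scored for LDH leakage.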

[4] = Experimental LogD (partition coefficient); settings: for logD: not stated, Partition Coeff LogD
[5] = tested on: HCT116 cells; test: Lactate dehydrogenase (LDH) release assay; assay type: cell-based
Method in brief: as §1

[6] = Nanoclick permeability assay EC50

| Structure (SMILES) | solubility kinetic [1] | cell entry EC50 [2, 6] | EC50 ([3]; LDH: Cytotoxicity assay EC50) | logD [4] | other results |
| --- | --- | --- | --- | --- | --- |
| CC(=O)N[C@@H](CCCCN=[N+]=[N-])C(=O)NCCC(=O)N[C@@H](CC(C)C)C(=O)N[C@H](C(=O)N[C@@H](Cc1ccccc1)C(=O)N[C@]1(C)CCCCCCC=CCCC[C@@](C)(C(=O)N2CCC[C@H]2C(=O)N2CCC[C@H]2C(=O)N2CCC[C@H]2C(=O)N2CCC[C@H]2C(=O)N2CCC[C@H]2C(=O)N2CCC[C@H]2C(N)=O)NC(=O)[C@H](CC2CCC2)NC(=O)[C@H](CCC(N)=O)NC(=O)[C@H](C)NC(=O)[C@H](Cc2c[nH]c3ccccc23)NC(=O)[C@H](Cc2ccc(O)cc2)NC(=O)[C@H](CCC(=O)O)NC1=O)[C@@H](C)O [MP-093] | 156 µM (≈ 363 µg/mL) | 1380 nM | > 50700 nM | 2.28 | – |
| CC[C@H](C)[C@H](NC(=O)[C@H](CC(C)C)NC(=O)[C@H](Cc1ccccc1)NC(=O)[C@@H](N)Cc1ccccc1)C(=O)N1CCC[C@H]1C(=O)N[C@@H](CCCCN)C(=O)NCC(=O)N[C@@H](CCCNC(=N)N)C(=O)N[C@@H](CCCNC(=N)N)C(=O)N[C@@H](CCCNC(=N)N)C(=O)N[C@@H](CCCNC(=N)N)C(=O)N[C@@H](CCCNC(=N)N)C(=O)N[C@@H](CCCNC(=N)N)C(=O)N[C@@H](CCCNC(=N)N)C(=O)N[C@@H](CCCNC(=N)N)C(=O)N[C@@H](CCCNC(=N)N)C(=O)N[C@@H](CCCCN=[N+]=[N-])C(=O)NCCC(=O)N[C@@H](CC(C)C)C(=O)N[C@H](C(=O)N[C@@H](Cc1ccccc1)C(=O)N[C@]1(C)CCCCCCC=CCCC[C@@](C)(C(=O)N[C@@H](CO)C(=O)N[C@@H](C)C(=O)N[C@@H](C)C(N)=O)NC(=O)[C@H](CC2CCC2)NC(=O)[C@H](CCC(N)=O)NC(=O)[C@H](C)NC(=O)[C@H](Cc2c[nH]c3ccccc23)NC(=O)[C@H](Cc2ccc(O)cc2)NC(=O)[C@H](CCC(=O)O)NC1=O)[C@@H](C)O [MP-656] (H-FFLIPKGRRRRRRRRR[Lys(N3)][βAla]LTF[R8]EYWAQ[Cba][S5]SAA-NH2; staple 22-29) | – | 544 nM | – | – | Solubility [1]: Poorly Behaved; Partition Coeff LogD [4]: Poorly Behaved |
| CC(=O)N[C@@H](CCC(=O)O)C(=O)N[C@@H](CCC(=O)O)C(=O)N[C@@H](CCCCN=[N+]=[N-])C(=O)NCCCCCC(=O)N[C@H](C(=O)N[C@@H](CO)C(=O)N[C@@H](Cc1ccccc1)C(=O)N[C@]1(C)CCCCCCC=CCCC[C@@](C)(C(N)=O)NC(=O)[C@H](CC(C)C)NC(=O)[C@H](CC(C)C)NC(=O)[C@H](C)NC(=O)[C@H](Cc2c[nH]c3ccccc23)NC(=O)[C@H](Cc2ccc(O)cc2)NC(=O)[C@H](CCC(=O)O)NC1=O)[C@@H](C)O [MP-661] | 27 µM (≈ 53.7 µg/mL) | 546 nM | > 50000 nM | 2.02 | – |
| CC(=O)N[C@@H](CCCCN=[N+]=[N-])C(=O)NCCC(=O)N[C@@H](CC(C)C)C(=O)N[C@H](C(=O)N[C@@H](Cc1ccccc1)C(=O)N[C@]1(C)CCCCCCC=CCCC[C@@](C)(C(=O)N[C@@H](C)C(=O)N[C@@H](C)C(=O)N[C@@H](C)C(=O)O)NC(=O)[C@H](CC2CCC2)NC(=O)[C@H](CCC(N)=O)NC(=O)[C@H](C)NC(=O)[C@H](Cc2c[nH]c3ccccc23)NC(=O)[C@H](Cc2ccc(O)cc2)NC(=O)[C@H](CCC(=O)O)NC1=O)[C@@H](C)O [MP-684] | – | – | – | – | cell entry EC50 [2]: 496 nM; EC50 ([3]; 0% FBS 4Hr, read-out: LDH: Cytotoxicity assay: EC50): > 50700 nM; EC50 ([3]; 10% FBS 16Hr, read-out: LDH: Cytotoxicity assay: EC50): > 50700 nM |
| CC(=O)N[C@@H](CCC(=O)O)C(=O)N[C@@H](CCC(=O)O)C(=O)N[C@@H](CCC(=O)O)C(=O)N[C@@H](CCCCN=[N+]=[N-])C(=O)NCCC(=O)N[C@@H](CC(C)C)C(=O)N[C@H](C(=O)N[C@@H](Cc1ccccc1)C(=O)N[C@]1(C)CCCCCCC=CCCC[C@@](C)(C(=O)N[C@@H](CCC(=O)O)C(=O)N[C@@H](CC(N)=O)C(=O)N[C@@H](Cc2ccccc2)C(N)=O)NC(=O)[C@H](CC2CCC2)NC(=O)[C@H](CCC(N)=O)NC(=O)[C@H](C)NC(=O)[C@H](Cc2c[nH]c3ccccc23)NC(=O)[C@H](Cc2ccc(O)cc2)NC(=O)[C@H](CCC(=O)O)NC1=O)[C@@H](C)O [MP-763] (Ac-EEE[Lys(N3)][βAla]LTF[R8]EYWAQ[Cba][S5]ENF-NH2; staple 9-16) | 156 µM (≈ 393 µg/mL) | 1140 nM | – | 1.86 | EC50 ([3]; LDH: Cytotoxicity assay: EC50): > 50700 nM |
| CC(=O)N[C@@H](CCCCN=[N+]=[N-])C(=O)NCCC(=O)N[C@@H](CC(C)C)C(=O)N[C@H](C(=O)N[C@@H](Cc1ccccc1)C(=O)N[C@]1(C)CCCCCCC=CCCC[C@@](C)(C(=O)N[C@@H](C)C(=O)N[C@@H](C)C(=O)N[C@@H](CCC(=O)O)C(=O)N[C@@H](C)C(=O)N[C@@H](C)C(=O)N[C@H](C)C(N)=O)NC(=O)[C@H](CC2CCC2)NC(=O)[C@H](CCC(N)=O)NC(=O)[C@H](C)NC(=O)[C@H](Cc2c[nH]c3ccccc23)NC(=O)[C@H](Cc2ccc(O)cc2)NC(=O)[C@H](CCC(=O)O)NC1=O)[C@@H](C)O [MP-833] (Ac-[Lys(N3)][βAla]LTF[R8]EYWAQ[Cba][S5]AAEAA[dA]-NH2; staple 6-13) | 154 µM (≈ 343 µg/mL) | – | – | – | cell entry EC50 [2]: 1020 nM; EC50 ([3]; 0% FBS 4Hr, read-out: LDH: Cytotoxicity assay EC50): > 50700 nM; EC50 ([3]; 10% FBS 16Hr, read-out: LDH: Cytotoxicity assay EC50): > 50700 nM; LDH: Cytotoxicity assay % Effect ([5]; 0% FBS 4Hr): 3.813%; LDH: Cytotoxicity assay % Effect ([5]; 10% FBS 16Hr): 10.68% |
| C[C@H](NC(=O)[C@H](C)NC(=O)[C@H](C)NC(=O)[C@]1(C)CCCC=CCCCCCC[C@@](C)(NC(=O)[C@H](Cc2ccccc2)NC(=O)[C@@H](NC(=O)[C@H](C)NC(=O)CCNC(=O)[C@H](CCCCN=[N+]=[N-])NC(=O)[C@H](C)NC(=O)[C@H](C)NC(=O)[C@H](CCCNC(=N)N)NC(=O)[C@H](CCCNC(=N)N)NC(=O)[C@H](CO)NC(=O)[C@H](CCCNC(=N)N)NC(=O)[C@H](CO)NC(=O)[C@H](CCCNC(=N)N)NC(=O)CN)[C@@H](C)O)C(=O)N[C@@H](C)C(=O)N[C@@H](Cc2ccc(O)cc2)C(=O)N[C@@H](Cc2c[nH]c3ccccc23)C(=O)N[C@@H](C)C(=O)N[C@@H](C)C(=O)N[C@@H](CC2CCC2)C(=O)N1)C(N)=O [MP-878] (H-GRSRSRRAA[Lys(N3)][βAla]ATF[R8]AYWAA[Cba][S5]AAA-NH2; staple 15-22) | – | 2100 nM | – | 2.81 | Solubility [1]: Poorly Behaved |
| CC(C)C[C@@H]1NC(=O)[C@H](C)NC(=O)[C@H](Cc2c[nH]c3ccccc23)NC(=O)[C@H](Cc2ccc(O)cc2)NC(=O)[C@H](CCC(=O)O)NC(=O)[C@](C)(NC(=O)[C@H](Cc2ccccc2)NC(=O)[C@H](CO)NC(=O)[C@@H](NC(=O)[C@H](CO)NC(=O)CNC(=O)[C@H](CO)NC(=O)[C@H](CCCCN=[N+]=[N-])NC(=O)[C@H](CCC(=O)O)NC(=O)[C@H](CCC(=O)O)NC(=O)[C@@H](N)CCC(=O)O)[C@@H](C)O)CCCCCCC=CCCC[C@@](C)(C(N)=O)NC(=O)[C@H](CC(C)C)NC1=O [MP-948] (H-EEE[Lys(N3)]SGSTSF[R8]EYWALL[S5]-NH2; staple 11-18) | 112 µM (≈ 245 µg/mL) | > 10000 nM | > 50000 nM | 1.48 | – |
| CC(C)C[C@@H]1NC(=O)[C@H](C)NC(=O)[C@H](Cc2c[nH]c3ccccc23)NC(=O)[C@H](Cc2ccc(O)cc2)NC(=O)[C@H](CCC(=O)O)NC(=O)[C@](C)(NC(=O)[C@H](Cc2ccccc2)NC(=O)[C@H](CO)NC(=O)[C@@H](NC(=O)[C@H](CO)NC(=O)CNC(=O)[C@H](CO)NC(=O)[C@H](CCCCN=[N+]=[N-])NC(=O)[C@H](CCC(=O)O)NC(=O)[C@H](CCC(=O)O)NC(=O)[C@@H](N)CCC(=O)O)[C@@H](C)O)CCCCCCC=CCCC[C@@](C)(C(=O)N[C@@H](CCC(=O)O)C(=O)N[C@@H](CC(N)=O)C(N)=O)NC(=O)[C@H](CC(C)C)NC1=O [MP-949] (H-EEE[Lys(N3)]SGSTSF[R8]EYWALL[S5]EN-NH2; staple 11-18) | 104 µM (≈ 253 µg/mL) | 4350 nM | > 50000 nM | 1.66 | – |
